Measurements from patent publication US20070203225A1, “METHOD OF INCREASING ENDOGENOUS ADIPONECTIN PRODUCTION AND LEPTIN PRODUCTION” (priority 2001, published 2007).
Entries after “also recorded” stand apart in the source; their conditions may differ.

How the values were obtained:
Format in all cases: cell-based
[1] = test system: isolated rat adipocytes; test: Glucose utilization (uptake) by isolated cultured rat adipocytes; conditions: for effect on glucose utilization (in words): insulin 0.16 to 1.6 nM
Procedure: (§1) Cell isolation/preparation: Adipocytes are prepared from epididymal fat pads from male Sprague-Dawley rats weighing 300-600 g. Epididymal fat depots are resected from halothane anesthetized rats under aseptic conditions and adipocytes are isolated by collagenase digestion by the Rodbell method (Rodbell M. Metabolism of isolated fat cells. I. Effects of hormones on glucose metabolism and lipolysis. J Biol Chem. 1964; 239: 375-380), with minor modifications as previously described (Mueller W M, Gregoire F M, Stanhope K L, Mobbs C V, Mizuno T M, Warden C H, Stem J S, Havel P J. Evidence that glucose metabolism regulates leptin secretion from isolated adipocytes. Endocrinology 139: 551-558, 1998; Mueller W M, Stanhope K L, Gregoire F, Evans J L, Havel P J. Effects of metformin and vanadium on leptin secretion from cultured rat adipocytes. Obesity Res. 8: 530-539, 2000; Medina E A, Stanhope K L, Mizuno T M, Mobbs C V, Gregoire F, Hubbard N E, Erickson K L, Havel P J. Effects of tumor necrosis factor alpha on leptin secretion and gene expression: relationship to changes of glucose metabolism in isolated rat adipocytes. Int J Obes Relat Metab Disord. 23: 896-903, 1999.). The isolated adipocytes are then incubated for 30 minutes at 37 C before being plated and cultured on Matrigel-coated plates.
(§2) Adipocyte Culture: Adipocytes are maintained in culture anchored to a basement membrane matrix (Matrigel, Becton Dickinson, Franklin Lakes, N.J.) or collagen from Cohesion Technologies, (Palo Alto, Calif.). Although all in vitro systems have inherent advantages and disadvantages, advantages of this system compared with cultures containing free-floating adipocytes are that the matrix simulates their normal basement membrane attachment and that the cells are maintained in close proximity to each other, allowing direct cell to cell contact. Together the cell contact and basement membrane attachment help to maintain differentiation, since adipocytes have a strong tendency to dedifferentiate in long-term (>24 h) culture. In addition, the matrix and the small amount of serum in the media both contain growth factors, which are also likely to help in maintaining cell differentiation. Furthermore, the adipocytes in this system are not exposed to toxic levels of oxygen at the interface of the media and the incubator atmosphere, as opposed to free-floating adipocytes which aggregate at the surface of the media. An advantage of the system over those containing minced adipose tissue is that all of the cells in the culture are equally exposed to the nutrients and the oxygen dissolved in the media. Thus, although clearly different from the in vivo situation, this system provides a more physiological environment than most systems for maintaining adipocytes in long-term culture.
(§3) In culturing each suspension, Matrigel is first thawed on ice to a liquid and uniformly applied to the surface of culture dishes (300 μl Matrigel/35 mm well). After the incubation period, 150 μl of the adipocyte suspension (2:1 ratio of packed cells to media) are plated on the Matrigel or collagen matrix. Adipocytes from each suspension are thoroughly mixed with a transfer pipette before plating to insure that a similar number adipocytes with a similar size distribution are added to the control and experimental wells for each suspension. The warmth of the added cells and buffer causes the Matrigel to gel around the adipocytes, or the neutralization of the acidic pH of the collagen solution to 7.0 solidifies the collagen, and both of these techniques effectively anchor the adipocytes to the culture dish. After a 30 minute incubation at 37° C., 2 ml of warm culture medium is added. The cells are maintained in an incubator at 37° C. for 96 hours with 6% CO2. Aliquots of adipocytes from each animal are divided into wells, with the different concentrations of insulin or other agents to be tested. In each plate an appropriate control well contains adipocytes from the same animal. […]

[2] = test system: isolated rat adipocytes; test: Lactate production and proportion of glucose anaerobically metabolized to lactate in isolated cultured rat adipocytes
Procedure: as §1, §2, §3

[3] = test system: isolated rat adipocytes; test: Leptin secretion/production by isolated cultured rat adipocytes (RIA)
Procedure: as §1, §2, §3

[4] = test system: isolated rat adipocytes; test: Glucose oxidation: incorporation of 14C-glucose into CO2 by isolated rat adipocytes
Procedure: Substrate Oxidation: Oxidation is measured using a modification of the method of Rodbell (Rodbell, 1964) and a modification of the cell culture system described by Bottcher and Furst (Bottcher, 1996). Briefly, adipocytes are isolated, counted and sized as previously described. Adipocytes are plated as described except they are placed in a sterile 20 ml scintillation vial instead of a well. Two ml of treatment media containing [U-^14C]-substrate (0.3 uCi/ml; glucose, fatty acids, malate, fumarate, pyruvate) is added to the vials. The vials are filled with 95% O2-5% CO2 gas and capped with rubber stoppers fitted with a hanging center well. Each well contains a 2×8 cm strip of Whatman No. 1 paper. Vials are maintained at 37° C. for 48 hr. After 48 hr, a sample of media is removed from each vial using a 4 inch, 23 gauge needle. Using another syringe and 23 gauge needle, 200 ul of sodium benzethonium is placed onto the paper strip and hanging well to capture CO2. Concentrated sulfuric acid is added to the vial in order to lyse cells and liberate all CO2 from the collagen matrix. After 24 hours, the hanging well and paper are transferred to another vial containing scintillation fluid and counted. The data are expressed as % DPM recovered as CO2 of the total DPM remaining in the media at 48 hours and as micromoles of substrate oxidized over time.

[5] = test system: isolated rat adipocytes; test: Incorporation of glucose carbon into triglyceride in cultured adipocytes
Procedure: Incorporation of Glucose Carbon into Triglyceride: To measure glucose incorporation into triglyceride, cultures are exposed to media containing 0.01 uCi/ml of ^14C-glucose. After 96 hr, media and extracellular lipid is removed from the well and methanol added. Then scrape the collagen-cell matrix from the well and transfer into a 50 ml glass tube. Rinse the well and scrape again in methanol to assure complete transfer of cells. Total triglycerides will be extracted using the Folch method (Folch, 1957). An aliquot of the lipid extract will be placed into vials containing scintillation fluid then radioactivity will be measured.
The first measurement is used to calculate the amount of glucose incorporated into triglycerides. Another aliquot of the lipid extract is placed into pre-weighed aluminum pans to determine the total amount of triglyceride per well. The remaining lipid is saponified and acidified to separate the glycerol and fatty acids. An aliquot of the lipid extract is placed into vials containing scintillation fluid and counted. This second count represents the ^14C-glucose incorporation into fatty acids. By subtraction, the amount that was incorporated into triglyceride though glycerol is also determined. Glucose incorporation into triglyceride and into the fatty acid portion of the triglyceride are calculated by multiplying disintegration per min by total ug of glucose/well over the total DPM/well.

[6] = DTNB 100.0 μM + insulin 0.48 nM vs control (insulin only)
[7] = DTNB 100.0 μM + insulin 0.48 nM, isolated rat adipocytes, 96 h culture
[8] = DTNB 100 μM, NEM 0.1 μM, DCA 2 mM

insulin
effect on glucose utilization (in words) [1]: concentration dependent increase | effect on glucose utilization (in words) ([1]; listed as Insulin): increases | effect on proportion of glucose converted to lactate (in words) ([2]; insulin 0.16 to 1.6 nM): decreases | effect on proportion of glucose not converted to lactate or triglyceride (OTHER), by subtraction (in words) ([2]; insulin 0.16 to 1.6 nM): increases | effect on leptin secretion (in words) ([3]; insulin 0.16 to 1.6 nM): concentration-dependent increases; also recorded: concentration dependent increase | increase of proportional oxidation of glucose ([4]; insulin 1.6 nM): 43.6±10.6% | effect on amount of glucose oxidized to CO2 (in words) ([4]; insulin 1.6 nM, n=18): doubles; also recorded: markedly increases | effect on proportional incorporation of glucose into triglyceride (in words) ([5]; insulin 0.16 to 1.6 nM, listed as Insulin): does not affect; also recorded: does not alter

O=C(O)c1cc(SSc2ccc([N+](=O)[O-])c(C(=O)O)c2)ccc1[N+](=O)[O-] [DTNB, 5,5′-Dithiobis(2-nitrobenzoate)]
Change in Parameter: Glucose Uptake (μg) over 96 h [1, 6]: +348 ± 114 μg | Glucose Uptake (μg) over 96 h [1, 7]: 1384 ± 94 µg | effect on total / insulin-mediated glucose utilization (in words) [1, 8]: increased | Change in Parameter: Glucose to Lactate (%) [2, 6]: −9.5 ± 1.0% | Change in Parameter: Lactate Produced (μg) over 96 h [2, 6]: -53 ± 25 µg | Glucose to Lactate (%) [2, 7]: 13.1 ± 1.4% | Lactate Produced (μg) over 96 h [2, 7]: 179 ± 22 µg | effect on glucose not converted to lactate or incorporated into TG (OTHER; glucose flux into oxidation), by subtraction (in words) [2, 8]: increased | effect on proportion of glucose anaerobically metabolized to lactate (in words) [2, 8]: decreased | effect on lactate production (in words) ([2]; DTNB 100 μM, NEM 0.1 μM, DCA 0.1 to 5.0 mM): without any increase | % ΔLeptin Produced over 96 h [3, 6]: +57.3 ± 5.8% | % Δ[Leptin] (ng/ml) at 96 h [3, 6]: +60.2 ± 8.3% | Change in Parameter: Leptin (ng) Produced over 96 h [3, 6]: +18.4 ± 2.3 ng | Change in Parameter: [Leptin] (ng/ml) at 96 h [3, 6]: +6.3 ± 0.8 ng/ml | Leptin (ng) Produced over 96 h [3, 7]: 55.6 ± 2.9 ng | [Leptin] (ng/ml) at 96 h [3, 7]: 17.2 ± 0.9 ng/mL | effect on leptin production/secretion (in words) ([3]; PDH kinase inhibitors DTNB, NEM, DCA, cultured adipocytes): most potent stimulator; also recorded: increase | increase of leptin production/secretion ([3]; PDH kinase inhibitors vs control: DTNB 100 μM, NEM 0.1 μM, DCA 2 mM, cultured adipocytes): approximately 60% | effect on absolute and proportional glucose oxidation, labeled glucose into CO2 (in words) ([4]; DTNB (50 μM in FIG. 20) and DCA (2 mM), percent of control): increase | effect on proportion of glucose incorporated into TG (in words) [5, 8]: without affecting
